Measurements: patent publication US20260176320A1, “MODULATORS OF G-PROTEIN COUPLED RECEPTORS” (priority 2018, published 2026)
Where two headings read alike, the source gives them in different places.

Assays:
GLP-1R = GLP-1R (Homo sapiens, UniProt P43220); assay: HitHunter cAMP assay (GLP-1R); type: cell-based; conditions: cAMP; for Emax: read-out: (Emax) GLP-1R
Outline: (§1)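 cAMP, luminescence read: agonist 22-pt 2× dilution in DMSO, duplicate, 30 min RT on 10,000 cells/well in 1×HBSS/10 mM HEPES/625 μM IBMX/0.2% BSA; anti-cAMP reagent 1 h RT dark, then O/N RT dark before read.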

GIP-R = molecular target: T1, GIP-R (Homo sapiens, UniProt P48546); assay: HitHunter cAMP assay (GIP-R); type: cell-based; conditions: cAMP; for Emax: read-out: (Emax) GIP-R
T1 sequence (P48546 22-466): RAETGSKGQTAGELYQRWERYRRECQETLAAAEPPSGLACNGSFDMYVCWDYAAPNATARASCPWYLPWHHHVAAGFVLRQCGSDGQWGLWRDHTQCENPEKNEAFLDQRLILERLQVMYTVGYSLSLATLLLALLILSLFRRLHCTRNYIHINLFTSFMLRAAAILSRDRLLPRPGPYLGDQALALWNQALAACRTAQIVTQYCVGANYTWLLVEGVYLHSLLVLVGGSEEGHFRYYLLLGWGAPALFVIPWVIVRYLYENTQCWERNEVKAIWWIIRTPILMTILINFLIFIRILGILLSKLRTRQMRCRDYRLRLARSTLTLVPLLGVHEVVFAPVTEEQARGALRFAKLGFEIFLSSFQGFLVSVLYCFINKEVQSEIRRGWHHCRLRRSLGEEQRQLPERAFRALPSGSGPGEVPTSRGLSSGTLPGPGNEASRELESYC
Outline: as §1

[1] = Table 3A, read-out: EC50 GLP-1R/nM
[2] = Table 3A, read-out: EC50 GIP-R/nM
[3] = Table 3, read-out: EC50 GLP-1R/nM
[4] = Table 3, read-out: EC50 GIP-R/nM

Sequence of GLP-1R (P43220 24-463): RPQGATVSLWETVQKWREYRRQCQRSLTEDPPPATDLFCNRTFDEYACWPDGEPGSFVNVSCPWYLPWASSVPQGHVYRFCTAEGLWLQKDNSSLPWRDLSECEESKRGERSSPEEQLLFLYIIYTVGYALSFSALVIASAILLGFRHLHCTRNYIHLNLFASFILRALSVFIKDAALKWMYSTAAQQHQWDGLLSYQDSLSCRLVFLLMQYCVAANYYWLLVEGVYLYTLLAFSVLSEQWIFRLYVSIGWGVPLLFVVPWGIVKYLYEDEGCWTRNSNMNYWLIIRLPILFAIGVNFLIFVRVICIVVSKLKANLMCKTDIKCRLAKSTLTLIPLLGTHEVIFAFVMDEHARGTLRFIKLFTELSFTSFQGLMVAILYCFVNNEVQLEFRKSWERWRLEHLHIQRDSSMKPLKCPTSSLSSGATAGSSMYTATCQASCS

Compound	EC50 (GLP-1R; EC50 GLP-1R/nM, Table 3)	EC50 (GLP-1R; EC50 GLP-1R/nM, Table 3A)	Emax (GLP-1R; Table 3)	Emax (GLP-1R; Table 3A)	EC50 (GIP-R; EC50 GIP-R/nM, Table 3)	EC50 (GIP-R; EC50 GIP-R/nM, Table 3A)	Emax (GIP-R; Table 3)	Emax (GIP-R; Table 3A)	EC50 (GLP-1R; [1])	EC50 (GIP-R; [2])	EC50 (GLP-1R; [3])	EC50 (GIP-R; [4])
CCCCCCCCCCCCCCCC(=O)N[C@@H](CCC(=O)NCCCC[C@H](NC(=O)[C@H](CO)NC(=O)[C@@H]1CCCN1C(=O)[C@@H]1CCCN1C(=O)[C@@H]1CCCN1C(=O)[C@H](C)NC(=O)CNC(=O)[C@H](CO)NC(=O)[C@H](CO)NC(=O)[C@@H]1CCCN1C(=O)CNC(=O)CNC(=O)[C@H](C)NC(=O)[C@H](CC(C)C)NC(=O)[C@H](CC(C)C)NC(=O)[C@H](Cc1c[nH]c2ccccc12)NC(=O)[C@H](CC(N)=O)NC(=O)[C@@H](NC(=O)[C@H](Cc1ccccc1)NC(=O)[C@H](CCC(=O)O)NC(=O)C(C)(C)NC(=O)[C@H](C)NC(=O)[C@H](C)NC(=O)[C@H](CCC(N)=O)NC(=O)[C@H](CCCCN)NC(=O)[C@H](CC(=O)O)NC(=O)[C@H](CC(C)C)NC(=O)[C@H](Cc1ccc(O)cc1)NC(=O)[C@@H](NC(=O)[C@H](CO)NC(=O)[C@H](Cc1ccc(O)cc1)NC(=O)[C@H](CC(=O)O)NC(=O)[C@H](CO)NC(=O)[C@@H](NC(=O)[C@H](Cc1ccccc1)NC(=O)[C@@H](NC(=O)CNC(=O)[C@H](CCC(=O)O)NC(=O)CSCC(=O)NCCN1C(=O)C2=C(CCCC2)C1=O)[C@@H](C)O)[C@@H](C)O)[C@@H](C)CC)C(C)C)C(N)=O)C(=O)O [Compound 100]	10 to 100 nM	10 to 100 nM	95%	95%	1 to 10 nM	1 to 10 nM	100%	100%				
CCCCCCCCCCCCCCCC(=O)N[C@@H](CCC(=O)NCCCC[C@H](NC(=O)[C@H](CO)NC(=O)[C@@H]1CCCN1C(=O)[C@@H]1CCCN1C(=O)[C@@H]1CCCN1C(=O)[C@H](C)NC(=O)CNC(=O)[C@H](CO)NC(=O)[C@H](CO)NC(=O)[C@@H]1CCCN1C(=O)CNC(=O)CNC(=O)[C@H](C)NC(=O)[C@H](CC(C)C)NC(=O)[C@H](CC(C)C)NC(=O)[C@H](Cc1c[nH]c2ccccc12)NC(=O)[C@H](CC(N)=O)NC(=O)[C@@H](NC(=O)[C@H](Cc1ccccc1)NC(=O)[C@H](CCC(=O)O)NC(=O)C(C)(C)NC(=O)[C@H](C)NC(=O)[C@H](C)NC(=O)[C@H](CCC(N)=O)NC(=O)[C@H](CCCCN)NC(=O)[C@H](CC(=O)O)NC(=O)[C@H](CC(C)C)NC(=O)[C@H](Cc1ccc(O)cc1)NC(=O)[C@@H](NC(=O)[C@H](CO)NC(=O)[C@H](Cc1ccc(O)cc1)NC(=O)[C@H](CC(=O)O)NC(=O)[C@H](CO)NC(=O)[C@@H](NC(=O)[C@H](Cc1ccccc1)NC(=O)[C@@H](NC(=O)CNC(=O)[C@H](CCCC(=O)O)NC(=O)CSCC(=O)NCCN1CCCCC1=O)[C@@H](C)O)[C@@H](C)O)[C@@H](C)CC)C(C)C)C(N)=O)C(=O)O [Compound 219]				89%				75%	10 to 100 nM	1 to 10 nM		
CCCCCCCCCCCCCCCC(=O)N[C@@H](CCC(=O)NCCCC[C@H](NC(=O)[C@H](CO)NC(=O)[C@@H]1CCCN1C(=O)[C@@H]1CCCN1C(=O)[C@@H]1CCCN1C(=O)[C@H](C)NC(=O)CNC(=O)[C@H](CO)NC(=O)[C@H](CO)NC(=O)[C@@H]1CCCN1C(=O)CNC(=O)CNC(=O)[C@H](C)NC(=O)[C@H](CC(C)C)NC(=O)[C@H](CC(C)C)NC(=O)[C@H](Cc1c[nH]c2ccccc12)NC(=O)[C@H](CC(N)=O)NC(=O)[C@@H](NC(=O)[C@H](Cc1ccccc1)NC(=O)[C@H](CCC(=O)O)NC(=O)C(C)(C)NC(=O)[C@H](C)NC(=O)[C@H](C)NC(=O)[C@H](CCC(N)=O)NC(=O)[C@H](CCCCN)NC(=O)[C@H](CC(=O)O)NC(=O)[C@H](CC(C)C)NC(=O)[C@H](Cc1ccc(O)cc1)NC(=O)[C@@H](NC(=O)[C@H](CO)NC(=O)[C@H](Cc1ccc(O)cc1)NC(=O)[C@H](CC(=O)O)NC(=O)[C@H](CO)NC(=O)[C@@H](NC(=O)[C@H](Cc1ccccc1)NC(=O)[C@@H](NC(=O)CNC(=O)[C@@H](CCC(=O)O)NC(=O)CSCC(=O)NCCN1C(=O)CSC1=O)[C@@H](C)O)[C@@H](C)O)[C@@H](C)CC)C(C)C)C(N)=O)C(=O)O [Compound 53]			99%	99%			62%	62%	1 to 10 nM	1 to 10 nM	1 to 10 nM	1 to 10 nM
CCCCCCCCCCCCCCCC(=O)NCCCC[C@H](NC(=O)[C@H](CO)NC(=O)[C@@H]1CCCN1C(=O)[C@@H]1CCCN1C(=O)[C@@H]1CCCN1C(=O)[C@H](C)NC(=O)CNC(=O)[C@H](CO)NC(=O)[C@H](CO)NC(=O)[C@@H]1CCCN1C(=O)CNC(=O)CNC(=O)[C@H](C)NC(=O)[C@H](CC(C)C)NC(=O)[C@H](CC(C)C)NC(=O)[C@H](Cc1c[nH]c2ccccc12)NC(=O)[C@H](CC(N)=O)NC(=O)[C@@H](NC(=O)[C@H](Cc1ccccc1)NC(=O)[C@H](CCC(=O)O)NC(=O)C(C)(C)NC(=O)[C@H](C)NC(=O)[C@H](C)NC(=O)[C@H](CCC(N)=O)NC(=O)[C@H](CCCCN)NC(=O)[C@H](CC(=O)O)NC(=O)[C@H](CC(C)C)NC(=O)[C@H](Cc1ccc(O)cc1)NC(=O)[C@@H](NC(=O)[C@H](CO)NC(=O)[C@H](Cc1ccc(O)cc1)NC(=O)[C@H](CC(=O)O)NC(=O)[C@H](CO)NC(=O)[C@@H](NC(=O)[C@H](Cc1ccccc1)NC(=O)[C@@H](NC(=O)CNC(=O)[C@H](CCC(=O)O)NC(=O)CSCC(=O)NCCN1C(=O)CSC1=O)[C@@H](C)O)[C@@H](C)O)[C@@H](C)CC)C(C)C)C(=O)O [Compound 56]			110%	110%			60%	60%	0.1 to 1 nM	1 to 10 nM	0.1 to 1 nM	1 to 10 nM
CCCCCCCCCCCCCCCC(=O)N[C@@H](CCC(=O)NCCCC[C@H](NC(=O)[C@H](CO)NC(=O)[C@@H]1CCCN1C(=O)[C@@H]1CCCN1C(=O)[C@@H]1CCCN1C(=O)[C@H](C)NC(=O)CNC(=O)[C@H](CO)NC(=O)[C@H](CO)NC(=O)[C@@H]1CCCN1C(=O)CNC(=O)CNC(=O)[C@H](C)NC(=O)[C@H](CC(C)C)NC(=O)[C@H](CC(C)C)NC(=O)[C@H](Cc1c[nH]c2ccccc12)NC(=O)[C@H](CC(N)=O)NC(=O)[C@@H](NC(=O)[C@H](Cc1ccccc1)NC(=O)[C@H](CCC(=O)O)NC(=O)C(C)(C)NC(=O)[C@H](C)NC(=O)[C@H](C)NC(=O)[C@H](CCC(N)=O)NC(=O)[C@H](CCCCN)NC(=O)[C@H](CC(=O)O)NC(=O)[C@H](CC(C)C)NC(=O)[C@H](Cc1ccc(O)cc1)NC(=O)[C@@H](NC(=O)[C@H](CO)NC(=O)[C@H](Cc1ccc(O)cc1)NC(=O)[C@H](CC(=O)O)NC(=O)[C@H](CO)NC(=O)[C@@H](NC(=O)[C@H](Cc1ccccc1)NC(=O)[C@@H](NC(=O)CNC(=O)[C@H](CCC(=O)O)NC(=O)CSCC(=O)NCCN1C(=O)c2cccc3cccc(c23)C1=O)[C@@H](C)O)[C@@H](C)O)[C@@H](C)CC)C(C)C)C(N)=O)C(=O)O [Compound 248]				80%				105%	10 to 100 nM	1 to 10 nM		
